From ChEMBL document CHEMBL4000244, “Probing A-form DNA: A fluorescent aminosugar probe and dual recognition by anthraquinone-neomycin conjugates” (Bioorg Med Chem, 2017)

Key:
[1] = Binding affinity to 5'-GGCCCCCG-3' DNA hairpin assessed as change in fluorescence intensity at 1 uM after 45 mins by fluorescence quenching analysis relative to control
[2] = Binding affinity to 5'-GGGGGGGC-3' DNA hairpin assessed as change in fluorescence intensity at 1 uM after 45 mins by fluorescence quenching analysis relative to control
[3] = Binding affinity to 5'-GGCCCGCC-3' DNA hairpin assessed as change in fluorescence intensity at 1 uM after 45 mins by fluorescence quenching analysis relative to control
[4] = Binding affinity to 5'-CGCGCCCC-3' DNA hairpin assessed as change in fluorescence intensity at 1 uM after 45 mins by fluorescence quenching analysis relative to control
[5] = Binding affinity to 5'-CGGGGGCC-3' DNA hairpin assessed as change in fluorescence intensity at 1 uM after 45 mins by fluorescence quenching analysis relative to control
[6] = Binding affinity to 5'-CCGGGGGC-3' DNA hairpin assessed as change in fluorescence intensity at 1 uM after 45 mins by fluorescence quenching analysis relative to control
[7] = Binding affinity to 5'-CCGGCCCC-3' DNA hairpin assessed as change in fluorescence intensity at 1 uM after 45 mins by fluorescence quenching analysis relative to control
[8] = Binding affinity to 5'-CGGCCCGC-3' DNA hairpin assessed as change in fluorescence intensity at 1 uM after 45 mins by fluorescence quenching analysis relative to control
[9] = Binding affinity to 5'-CCCGGGCC-3' DNA hairpin assessed as change in fluorescence intensity at 1 uM after 45 mins by fluorescence quenching analysis relative to control
[10] = Binding affinity to 5'-CGGGGCCC-3' DNA hairpin assessed as change in fluorescence intensity at 1 uM after 45 mins by fluorescence quenching analysis relative to control
[11] = Binding affinity to 5'-GCCCGGGC-3' DNA hairpin assessed as change in fluorescence intensity at 1 uM after 45 mins by fluorescence quenching analysis relative to control
[12] = Binding affinity to 5'-CGGCGCGG-3' DNA hairpin assessed as change in fluorescence intensity at 1 uM after 45 mins by fluorescence quenching analysis relative to control
[13] = Binding affinity to 5'-CGCGCGCG-3' DNA hairpin assessed as change in fluorescence intensity at 1 uM after 45 mins by fluorescence quenching analysis relative to control
[14] = Binding affinity to 5'-GCCCGCCG-3' DNA hairpin assessed as change in fluorescence intensity at 1 uM after 45 mins by fluorescence quenching analysis relative to control
[15] = Binding affinity to 5'-GCGCGCCG-3' DNA hairpin assessed as change in fluorescence intensity at 1 uM after 45 mins by fluorescence quenching analysis relative to control
[16] = Binding affinity to 5'-CGGGCGGC-3' DNA hairpin assessed as change in fluorescence intensity at 1 uM after 45 mins by fluorescence quenching analysis relative to control
[17] = Binding affinity to 5'-CGGCGCCC-3' DNA hairpin assessed as change in fluorescence intensity at 1 uM after 45 mins by fluorescence quenching analysis relative to control
[18] = Binding affinity to 5'-GCGGGGCG-3' DNA hairpin assessed as change in fluorescence intensity at 1 uM after 45 mins by fluorescence quenching analysis relative to control
[19] = Binding affinity to 5'-GCGCGCGC-3' DNA hairpin assessed as change in fluorescence intensity at 1 uM after 45 mins by fluorescence quenching analysis relative to control
[20] = Binding affinity to 5'-CCCGCGGC-3' DNA hairpin assessed as change in fluorescence intensity at 1 uM after 45 mins by fluorescence quenching analysis relative to control
[21] = Binding affinity to 5'-CGGGGCGG-3' DNA hairpin assessed as change in fluorescence intensity at 1 uM after 45 mins by fluorescence quenching analysis relative to control
[22] = Binding affinity to 5'-GCCGCCCG-3' DNA hairpin assessed as change in fluorescence intensity at 1 uM after 45 mins by fluorescence quenching analysis relative to control
[23] = Binding affinity to 5'-CGGCGCGC-3' DNA hairpin assessed as change in fluorescence intensity at 1 uM after 45 mins by fluorescence quenching analysis relative to control
[24] = Binding affinity to 5'-GGCGGCGG-3' DNA hairpin assessed as change in fluorescence intensity at 1 uM after 45 mins by fluorescence quenching analysis relative to control
[25] = Binding affinity to 5'-GCGCCGCG-3' DNA hairpin assessed as change in fluorescence intensity at 1 uM after 45 mins by fluorescence quenching analysis relative to control
[26] = Binding affinity to 5'-CGCCGGGG-3' DNA hairpin assessed as change in fluorescence intensity at 1 uM after 45 mins by fluorescence quenching analysis relative to control
[27] = Binding affinity to 5'-CGCCGCCG-3' DNA hairpin assessed as change in fluorescence intensity at 1 uM after 45 mins by fluorescence quenching analysis relative to control
[28] = Binding affinity to 5'-CGCGCCCG-3' DNA hairpin assessed as change in fluorescence intensity at 1 uM after 45 mins by fluorescence quenching analysis relative to control
[29] = Binding affinity to 5'-CCCGCCGC-3' DNA hairpin assessed as change in fluorescence intensity at 1 uM after 45 mins by fluorescence quenching analysis relative to control
[30] = Binding affinity to 5'-CCGGCGGG-3' DNA hairpin assessed as change in fluorescence intensity at 1 uM after 45 mins by fluorescence quenching analysis relative to control
[31] = Binding affinity to 5'-CGCCGGGC-3' DNA hairpin assessed as change in fluorescence intensity at 1 uM after 45 mins by fluorescence quenching analysis relative to control
[32] = Binding affinity to 5'-GGGCGCCG-3' DNA hairpin assessed as change in fluorescence intensity at 1 uM after 45 mins by fluorescence quenching analysis relative to control
[33] = Binding affinity to 5'-GCCCGGCG-3' DNA hairpin assessed as change in fluorescence intensity at 1 uM after 45 mins by fluorescence quenching analysis relative to control
[34] = Binding affinity to 5'-GGCGCGCG-3' DNA hairpin assessed as change in fluorescence intensity at 1 uM after 45 mins by fluorescence quenching analysis relative to control
[35] = Binding affinity to 5'-GGGCGCGC-3' DNA hairpin assessed as change in fluorescence intensity at 1 uM after 45 mins by fluorescence quenching analysis relative to control
[36] = Binding affinity to 5'-GGGCGCCC-3' DNA hairpin assessed as change in fluorescence intensity at 1 uM after 45 mins by fluorescence quenching analysis relative to control

Structure (SMILES): NCC1O[C@H](O[C@H]2[C@@H](O)[C@H](O[C@@H]3[C@@H](O)[C@H](N)C[C@H](N)[C@H]3O[C@H]3O[C@H](CN)[C@@H](O)[C@H](O)[C@H]3N)O[C@@H]2CSCCNC(=O)CCSCC(=O)Nc2ccc(-c3c4ccc(=O)cc-4oc4cc(O)ccc34)c(C(=O)O)c2)[C@H](N)[C@@H](O)[C@@H]1O (stereo partly specified)
- Activity [1]: 16%
- Activity [2]: 29.8%
- Activity [3]: 31.2%
- Activity [4]: 36.3%
- Activity [5]: 38.1%
- Activity [6]: 38.4%
- Activity [7]: 39.4%
- Activity [8]: 39.9%
- Activity [9]: 40.2%
- Activity [10]: 40.4%
- Activity [11]: 41.1%
- Activity [12]: 43.2%
- Activity [13]: 43.6%
- Activity [14]: 43.8%
- Activity [15]: 44.2%
- Activity [16]: 45.1%
- Activity [17]: 45.2%
- Activity [18]: 45.2%
- Activity [19]: 45.2%
- Activity [20]: 45.4%
- Activity [21]: 45.5%
- Activity [22]: 45.8%
- Activity [23]: 46.2%
- Activity [24]: 46.8%
- Activity [25]: 46.9%
- Activity [26]: 47.3%
- Activity [27]: 48.1%
- Activity [28]: 48.8%
- Activity [29]: 48.9%
- Activity [30]: 49.1%
- Activity [31]: 49.5%
- Activity [32]: 50.6%
- Activity [33]: 51.9%
- Activity [34]: 57.1%
- Activity [35]: 58.3%
- Activity [36]: 65.9%
